# Measured values taken from patent publication US8067406B2, “Preventive/remedy for retinal nerve diseases containing alkyl ether derivatives or salts thereof” (Toyama Chemical Co., Ltd., priority 2003, dated 2011).
# Experiments:
# [1] = test system: Rat Retinal Ischemia Reperfusion Model; assay: Protecting effect of retinal nerve in rat retinal ischemia reperfusion model (electroretinogram measurement); assay type: in vivo; details: SD rats, 30 min retinal ischemia; 10 mg/kg orally twice a day for 14 days from 2 days after reperfusion; ERG about 1 hour after final administration; distilled water control group 35%
# Procedure: A rat retinal ischemia reperfusion model was prepared by a partially modified method of Steven Roth et al. (Experimental Eye Research, Vol. 65, pp. 771-779, 1997).
# As experimental animals, SD rats (SPF, 9-week-old, male, approximately 300 g of body weight) were used. Such rats were anesthetized with halothane (introduction: 4%; retention: 2%; gas composition: 70% air+30% oxygen; gas flow rate: 2 L/min). The rat was placed on a fixing plate with the left body side upward. The skin located between the external acoustic foramen and the external canthus on the left side was incised, and the skin-incised portion was held with a hook. The temporal muscle was burned out with a bipolar coagulator (output: 4.5 W), and it was detached from the cranial bone and the mandibular arch. […]
# ERG was measured in accordance with the method of Kawakami et al. (Gifu-dai Iki, Vol. 48, pp. 166-175, 2000). […] The obtained waveform was swept on a memory oscilloscope and then recorded by a thermal array recorder. […] ERG of the ischemic eye was evaluated as a ratio to the value of normal control eye. ERG was measured after adaptation to darkness at 2 days after retinal ischemia reperfusion, and at approximately 1 hour after the final administration.
compound,measurement,setting,value
Cl.OC1CN(CCOCCc2ccc3sccc3c2)C1,melting point,,101 to 102 °C
O=C(O)/C=C\C(=O)O.OC1CN(CCCOCCc2ccc3sccc3c2)C1 [1-(3-(2-(1-benzothiophene-5-yl)ethoxy)propyl)-3-azetidinol maleate],ratio of the ERG amplitude value of the ischemic eye to the normal control eye,[1],65%
